Legend:
[1] = biological target: intracellular phosphorylation of EGFR (Tyr1068) in PC-9 cells (Homo sapiens, UniProt P00533, DEL746-750); assay: PC-9 pEGFR AlphaLISA assay; format: cell-based; conditions: 4 hours incubation, read-out: Phos EGFR PC9 IC50
How it was run: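 PC-9 cells (EGFR del746-750) in phenol-free DMEM/10% FBS, adhered overnight, then exposed to 10-point 4-fold compound dilutions for 4 h at 37 °C. Lysates assayed for pEGFR Tyr1068 by AlphaLISA SureFire Ultra; IC50 from percent pEGFR inhibition vs log concentration.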

EGFR (d746-750) = biological target: T1, EGFR (d746-750) (Homo sapiens, UniProt P00533, DEL746-750); assay: Biochemical EGFR inhibition assay (Caliper mobility shift), EGFR (d746-750); conditions: biochemical Caliper mobility shift assay, EGFR Exon 19-del enzyme; read-out: Enz EGFR Exon 19-del IC50
T1 construct: purchased SignalChem E10-122JG
How it was run: (§1)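 Kinase activity measured as phosphorylation of 2.5 µM 5-FAM-labelled peptide substrate in 100 mM HEPES pH 7.5, 10 mM MgCl2, 0.015% Brij-35, 1 mM DTT, 1.0% DMSO, at 1.0 mM ATP or ATP Km. Run at 25 °C to 10–20% conversion, stopped with EDTA; product resolved by mobility shift, apparent IC50 from percent activity vs log concentration.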

EGFR L858R = biological target: T2, EGFR L858R (Homo sapiens, UniProt P00533, L858R); assay: Biochemical EGFR inhibition assay (Caliper mobility shift), EGFR L858R; conditions: biochemical Caliper mobility shift assay, EGFR L858R enzyme; read-out: Enz EGFR L858R IC50
T2 construct: purchased SignalChem E10-122BG
How it was run: as §1

intracellular phosphorylation of EGFR (Tyr1068) in PC-9 cells, sequence (P00533 with tags, fused parts or gaps DEL746-750): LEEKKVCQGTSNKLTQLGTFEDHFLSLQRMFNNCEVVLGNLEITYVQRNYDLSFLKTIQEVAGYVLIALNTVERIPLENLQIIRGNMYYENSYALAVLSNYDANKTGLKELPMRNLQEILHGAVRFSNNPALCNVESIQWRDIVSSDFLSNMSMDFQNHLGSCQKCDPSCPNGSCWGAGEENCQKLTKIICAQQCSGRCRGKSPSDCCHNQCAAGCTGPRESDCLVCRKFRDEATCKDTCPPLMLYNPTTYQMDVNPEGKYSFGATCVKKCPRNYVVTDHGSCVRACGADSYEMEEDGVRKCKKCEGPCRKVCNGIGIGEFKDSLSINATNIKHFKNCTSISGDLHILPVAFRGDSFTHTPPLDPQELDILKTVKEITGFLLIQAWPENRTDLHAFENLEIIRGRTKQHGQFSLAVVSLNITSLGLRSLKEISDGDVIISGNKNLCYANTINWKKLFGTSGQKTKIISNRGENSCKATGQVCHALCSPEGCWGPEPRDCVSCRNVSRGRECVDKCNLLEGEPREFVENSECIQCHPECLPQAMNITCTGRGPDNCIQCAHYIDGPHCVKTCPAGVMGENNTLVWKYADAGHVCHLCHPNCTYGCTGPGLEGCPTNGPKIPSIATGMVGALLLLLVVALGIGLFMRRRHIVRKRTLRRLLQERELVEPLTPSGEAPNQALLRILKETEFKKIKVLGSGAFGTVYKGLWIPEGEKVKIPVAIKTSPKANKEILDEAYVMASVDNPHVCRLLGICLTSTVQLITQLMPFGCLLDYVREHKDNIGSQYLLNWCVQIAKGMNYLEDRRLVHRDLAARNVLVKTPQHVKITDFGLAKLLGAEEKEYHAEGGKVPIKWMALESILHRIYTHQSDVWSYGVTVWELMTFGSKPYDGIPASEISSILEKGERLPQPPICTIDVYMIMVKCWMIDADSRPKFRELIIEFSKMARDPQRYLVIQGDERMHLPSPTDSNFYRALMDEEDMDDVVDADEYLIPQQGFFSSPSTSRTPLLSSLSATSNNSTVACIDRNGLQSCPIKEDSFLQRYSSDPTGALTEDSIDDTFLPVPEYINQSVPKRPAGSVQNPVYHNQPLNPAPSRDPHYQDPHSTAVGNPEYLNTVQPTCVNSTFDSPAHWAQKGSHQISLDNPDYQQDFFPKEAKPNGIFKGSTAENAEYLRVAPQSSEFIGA
T1 sequence (P00533 with tags, fused parts or gaps DEL746-750 limits assumed): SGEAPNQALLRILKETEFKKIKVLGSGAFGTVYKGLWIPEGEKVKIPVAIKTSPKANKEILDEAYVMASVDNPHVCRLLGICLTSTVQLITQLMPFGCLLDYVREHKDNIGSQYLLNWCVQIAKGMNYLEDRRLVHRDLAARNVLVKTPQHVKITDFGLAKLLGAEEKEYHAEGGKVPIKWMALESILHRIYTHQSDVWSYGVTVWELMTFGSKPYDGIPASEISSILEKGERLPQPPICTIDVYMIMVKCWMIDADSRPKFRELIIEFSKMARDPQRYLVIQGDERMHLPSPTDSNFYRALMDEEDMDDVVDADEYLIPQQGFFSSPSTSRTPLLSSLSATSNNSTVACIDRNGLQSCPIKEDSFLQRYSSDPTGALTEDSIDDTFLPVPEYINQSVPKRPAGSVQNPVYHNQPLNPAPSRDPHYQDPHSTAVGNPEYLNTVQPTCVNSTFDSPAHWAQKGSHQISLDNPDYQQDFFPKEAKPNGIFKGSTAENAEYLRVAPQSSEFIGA
T2 sequence (P00533 25-1210 L858R): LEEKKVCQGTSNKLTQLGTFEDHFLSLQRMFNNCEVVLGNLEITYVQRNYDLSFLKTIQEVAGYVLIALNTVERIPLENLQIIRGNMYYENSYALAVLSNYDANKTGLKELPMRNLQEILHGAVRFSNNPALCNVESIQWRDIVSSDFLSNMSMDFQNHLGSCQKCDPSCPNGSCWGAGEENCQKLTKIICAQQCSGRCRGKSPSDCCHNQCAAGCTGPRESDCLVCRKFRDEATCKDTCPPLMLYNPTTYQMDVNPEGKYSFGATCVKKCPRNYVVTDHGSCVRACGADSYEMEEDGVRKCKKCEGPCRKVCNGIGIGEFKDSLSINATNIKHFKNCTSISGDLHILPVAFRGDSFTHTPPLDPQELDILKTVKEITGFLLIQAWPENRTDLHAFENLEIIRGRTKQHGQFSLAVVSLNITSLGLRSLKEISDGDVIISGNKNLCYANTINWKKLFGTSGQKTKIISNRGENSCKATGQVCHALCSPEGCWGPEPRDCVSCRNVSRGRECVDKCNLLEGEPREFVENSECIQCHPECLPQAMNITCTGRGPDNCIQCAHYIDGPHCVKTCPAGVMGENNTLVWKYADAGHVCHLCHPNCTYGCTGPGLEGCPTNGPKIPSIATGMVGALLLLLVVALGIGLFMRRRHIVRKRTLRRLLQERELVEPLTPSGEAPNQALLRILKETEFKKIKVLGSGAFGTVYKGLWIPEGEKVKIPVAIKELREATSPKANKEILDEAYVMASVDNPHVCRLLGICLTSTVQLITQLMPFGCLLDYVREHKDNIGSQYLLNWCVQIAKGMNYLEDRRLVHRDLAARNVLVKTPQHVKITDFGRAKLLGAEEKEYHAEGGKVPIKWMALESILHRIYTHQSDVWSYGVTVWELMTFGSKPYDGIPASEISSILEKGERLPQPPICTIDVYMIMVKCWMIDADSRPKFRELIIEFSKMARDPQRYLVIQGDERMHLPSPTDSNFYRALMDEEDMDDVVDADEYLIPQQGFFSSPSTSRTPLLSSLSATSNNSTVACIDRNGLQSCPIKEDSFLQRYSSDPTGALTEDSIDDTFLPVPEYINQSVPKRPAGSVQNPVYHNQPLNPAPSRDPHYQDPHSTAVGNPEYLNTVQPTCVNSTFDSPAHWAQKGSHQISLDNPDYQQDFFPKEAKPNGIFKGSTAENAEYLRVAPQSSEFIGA

SMILES	IC50 [1]	IC50 (EGFR (d746-750))	IC50 (EGFR L858R)
CN1CCC(n2cc(-c3cc(F)c4c(Nc5ccc6ncsc6c5F)ncnc4c3)cn2)CC1 [Example 227, 7-fluoro-N-(5-fluoro-7-(1-(1-methylpiperidin-4-yl)-1H-pyrazol-4-yl)quinazolin-4-yl)benzo[d]thiazol-6-amine]	0.0101 to 0.05 µM	≤ 0.01 µM	≤ 0.01 µM
C[C@@H](Oc1cc(-c2cnn(C)c2)cc2ncnc(Nc3ccc4ncsc4c3)c12)C(CO)CN(C)C (mixture of isomers) [Example A55, rac-(3R)-3-((4-(benzo[d]thiazol-6-ylamino)-7-(1-methyl-1H-pyrazol-4-yl)quinazolin-5-yl)oxy)-2-((dimethylamino)methyl)butan-1-ol]	≤ 0.01 µM	≤ 0.01 µM	≤ 0.01 µM
C[C@@H](Oc1cc(-c2cnn(C)c2)cc2ncnc(Nc3ccc4ncsc4c3)c12)[C@H]1CNCCO1 (single isomer, unassigned) [Example 207]	≤ 0.01 µM	≤ 0.01 µM	≤ 0.01 µM
CO[C@@H]1CCNC[C@H]1Oc1cc(-c2cnn(C)c2)cc2ncnc(Nc3ccc4ncsc4c3)c12 (single isomer, unassigned) [Example A37]	0.0101 to 0.05 µM	≤ 0.01 µM	≤ 0.01 µM
CC[C@@H](Oc1cc(-c2cnn(C)c2)cc2ncnc(Nc3ccc4ncsc4c3F)c12)C1COC1 (single isomer, unassigned) [Example 92]	≤ 0.01 µM	≤ 0.01 µM	≤ 0.01 µM
CC(Oc1cc(-c2cn(C)nc2OC(F)F)cc2ncnc(Nc3ccc4ncsc4c3)c12)C1COC1 (single isomer, unassigned) [Example 172]	0.0101 to 0.05 µM	≤ 0.01 µM	≤ 0.01 µM
C[C@H](Oc1cc(-c2cnn(C)c2)cc2ncnc(Nc3ccc4ncsc4c3)c12)C1CC1 [Example 66, (S)-N-(5-(1-cyclopropylethoxy)-7-(1-methyl-1H-pyrazol-4-yl)quinazolin-4-yl)benzo[d]thiazol-6-amine]	≤ 0.01 µM	≤ 0.01 µM	≤ 0.01 µM
C[C@@H](Oc1cc(-c2cnn(C)c2)cc2ncnc(Nc3ccc4ncsc4c3)c12)C(F)(F)F [Example 67, (R)-N-(7-(1-methyl-1H-pyrazol-4-yl)-5-((1,1,1-trifluoropropan-2-yl)oxy)quinazolin-4-yl)benzo[d]thiazol-6-amine]	0.0101 to 0.05 µM	≤ 0.01 µM	≤ 0.01 µM
Cn1cc(-c2cc(O[C@@H]3CC[C@@H](O)C3)c3c(Nc4ccc5ncsc5c4)ncnc3c2)cn1 [Example 410, (1R,3R)-3-((4-(benzo[d]thiazol-6-ylamino)-7-(1-methyl-1H-pyrazol-4-yl)quinazolin-5-yl)oxy)cyclopentan-1-ol]	≤ 0.01 µM	≤ 0.01 µM	≤ 0.01 µM
CN1CCN(CCOc2cc(OC3CCOCC3)c3c(Nc4ccc5ncsc5c4)ncnc3c2)CC1 [Example A16, N-(7-(2-(4-methylpiperazin-1-yl)ethoxy)-5-((tetrahydro-2H-pyran-4-yl)oxy)quinazolin-4-yl)benzo[d]thiazol-6-amine]	0.0101 to 0.05 µM	≤ 0.01 µM	0.0101 to 0.05 µM
C[C@H](CN1CCOCC1)Oc1cc(-c2cnn(C)c2)cc2ncnc(Nc3ccc4ncsc4c3)c12 [Example 395, (R)-N-(7-(1-methyl-1H-pyrazol-4-yl)-5-((1-morpholinopropan-2-yl)oxy)quinazolin-4-yl)benzo[d]thiazol-6-amine]	0.0101 to 0.05 µM	≤ 0.01 µM	≤ 0.01 µM
CC(C)Oc1cc(-c2cnn(C)c2)cc2ncnc(Nc3ccc4ncsc4c3)c12 [Example 405, N-(5-isopropoxy-7-(1-methyl-1H-pyrazol-4-yl)quinazolin-4-yl)benzo[d]thiazol-6-amine]	≤ 0.01 µM	≤ 0.01 µM	≤ 0.01 µM
C[C@H](CO)Oc1cc(N2CCN(C)CC2)cc2ncnc(Nc3ccc4ncsc4c3F)c12 (single isomer, unassigned) [Example 295]	≤ 0.01 µM	≤ 0.01 µM	0.0101 to 0.05 µM
C[C@@H](Oc1cc(-c2cnn(C)c2)cc2ncnc(Nc3ccc4ncsc4c3)c12)C(F)F (single isomer, unassigned) [Example 52]	≤ 0.01 µM	≤ 0.01 µM	≤ 0.01 µM
CN(C)C1(COc2cc(-c3cnn(C)c3)cc3ncnc(Nc4ccc5ncsc5c4)c23)COC1 [Example 187, N-(5-((3-(dimethylamino)oxetan-3-yl)methoxy)-7-(1-methyl-1H-pyrazol-4-yl)quinazolin-4-yl)benzo[d]thiazol-6-amine]	0.0101 to 0.05 µM	≤ 0.01 µM	0.0101 to 0.05 µM
CCC(=O)N1CCC(Oc2cc3c(Nc4ccc5ncsc5c4)ncnc3cc2OC)CC1 [Example 260, 1-(4-((4-(benzo[d]thiazol-6-ylamino)-7-methoxyquinazolin-6-yl)oxy)piperidin-1-yl)propan-1-one]	0.0101 to 0.05 µM	≤ 0.01 µM	≤ 0.01 µM
COc1nn(C)cc1-c1cc(O[C@@H]2CCN(C)C[C@H]2F)c2c(Nc3ccc4ncsc4c3F)ncnc2c1 [Example 351, 7-fluoro-N-(5-(((3R,4R)-3-fluoro-1-methylpiperidin-4-yl)oxy)-7-(3-methoxy-1-methyl-1H-pyrazol-4-yl)quinazolin-4-yl)benzo[d]thiazol-6-amine]	≤ 0.01 µM	≤ 0.01 µM	≤ 0.01 µM
Cn1cc(-c2cc(OC3CC3)c3c(Nc4ccc5ncsc5c4F)ncnc3c2)cn1 [Example 76, N-(5-cyclopropoxy-7-(1-methyl-1H-pyrazol-4-yl)quinazolin-4-yl)-7-fluorobenzo[d]thiazol-6-amine]	0.0101 to 0.05 µM	≤ 0.01 µM	≤ 0.01 µM
COc1cc2ncnc(Nc3ccc4ncsc4c3)c2cc1-c1cnn(C2CCN(C)C[C@H]2F)c1 (single isomer, unassigned) [Example 167]	0.0101 to 0.05 µM	≤ 0.01 µM	0.0101 to 0.05 µM
CN1CCC2(COC2)[C@H](Oc2cc(-c3cnn(C)c3)cc3ncnc(Nc4ccc5ncsc5c4)c23)C1 (single isomer, unassigned) [Example 353]	≤ 0.01 µM	≤ 0.01 µM	≤ 0.01 µM
Cc1ccn(-c2cc(OC3CCOCC3)c3c(Nc4ccc5ncsc5c4)ncnc3c2)n1 [Example 136, N-(7-(3-methyl-1H-pyrazol-1-yl)-5-((tetrahydro-2H-pyran-4-yl)oxy)quinazolin-4-yl)benzo[d]thiazol-6-amine]	0.0101 to 0.05 µM	≤ 0.01 µM	≤ 0.01 µM
CC(C)n1cc(-c2cc(OC3CCOCC3)c3c(Nc4ccc5ncsc5c4)ncnc3c2)cn1 [Example 191, N-(7-(1-isopropyl-1H-pyrazol-4-yl)-5-((tetrahydro-2H-pyran-4-yl)oxy)quinazolin-4-yl)benzo[d]thiazol-6-amine]	0.0101 to 0.05 µM	≤ 0.01 µM	≤ 0.01 µM
CCn1cc(-c2cc(OC3CCN(C4COC4)CC3)c3c(Nc4ccc5ncsc5c4)ncnc3c2)cn1 [Example 307, N-(7-(1-ethyl-1H-pyrazol-4-yl)-5-((1-(oxetan-3-yl)piperidin-4-yl)oxy)quinazolin-4-yl)benzo[d]thiazol-6-amine]	≤ 0.01 µM	≤ 0.01 µM	≤ 0.01 µM
Cn1cc(-c2cc(O[C@@H]3CCOC3)c3c(Nc4ccc5ncsc5c4)ncnc3c2)cn1 [Example 37, (R)-N-(7-(1-methyl-1H-pyrazol-4-yl)-5-((tetrahydrofuran-3-yl)oxy)quinazolin-4-yl)benzo[d]thiazol-6-amine]	0.0101 to 0.05 µM	≤ 0.01 µM	≤ 0.01 µM
CN(C)CC1(COc2cc(-c3cnn(C)c3)cc3ncnc(Nc4ccc5ncsc5c4)c23)COC1 [Example 188, N-(5-((3-((dimethylamino)methyl)oxetan-3-yl)methoxy)-7-(1-methyl-1H-pyrazol-4-yl)quinazolin-4-yl)benzo[d]thiazol-6-amine]	0.0101 to 0.05 µM	≤ 0.01 µM	0.0101 to 0.05 µM
Cn1cc(-c2cc(O[C@H]3CNC[C@@H]3F)c3c(Nc4ccc5ncsc5c4)ncnc3c2)cn1 [Example 382, N-(5-(((3S,4S)-4-fluoropyrrolidin-3-yl)oxy)-7-(1-methyl-1H-pyrazol-4-yl)quinazolin-4-yl)benzo[d]thiazol-6-amine]	> 0.0501 µM	≤ 0.01 µM	0.0101 to 0.05 µM
COc1cc2ncnc(Nc3ccc4ncsc4c3)c2cc1-c1cnn([C@@H]2CCN(C)C[C@@H]2F)c1 (racemic) [Example 165, cis-N-(6-(1-((3R,4S)-3-fluoro-1-methylpiperidin-4-yl)-1H-pyrazol-4-yl)-7-methoxyquinazolin-4-yl)benzo[d]thiazol-6-amine]	≤ 0.01 µM	≤ 0.01 µM	≤ 0.01 µM
COC[C@@H](C)Oc1cc(-n2cc([C@H](C)O)cn2)cc2ncnc(Nc3ccc4ncsc4c3F)c12 [Example A20, (S)-1-(1-(4-((7-fluorobenzo[d]thiazol-6-yl)amino)-5-(((R)-1-methoxypropan-2-yl)oxy)quinazolin-7-yl)-1H-pyrazol-4-yl)ethan-1-ol, OR (R)-1-(1-(4-((7-fluorobenzo[d]thiazol-6-yl)amino)-5-(((R)-1-methoxypropan-2-yl)oxy)quinazolin-7-yl)-1H-pyrazol-4-yl)ethan-1-ol]	≤ 0.01 µM	≤ 0.01 µM	≤ 0.01 µM
CN1CC[C@H](Oc2cc(-c3cnn(C)c3)cc3ncnc(Nc4ccc5ncsc5c4)c23)[C@@H](F)C1 (single isomer, unassigned) [Example 344]	≤ 0.01 µM	≤ 0.01 µM	≤ 0.01 µM
